# Data taken from patent publication US20180353524A1, “CANCER TREATMENT USING 2-DEOXY-2-FLUORO-L-FUCOSE IN COMBINATION WITH A CHECKPOINT INHIBITOR” (SEATTLE GENETICS, INC., priority 2015, published 2018).
# How the values were obtained:
# [1] = tested on: dendritic cells; assay: DC markers in co-cultures of T-cells and DCs (FACS); assay type: cell-based, human
# Procedure: T-cells were isolated from 10 mL of whole blood which was centrifuged first at 1200 rpm (300×g) for 10 min (without brakes). The top layer containing platelets was removed carefully without disrupting the white blood cell layer. Then RosetteSep™ Human T-Cell Enrichment Cocktail (Pan T-cells from StemCell technologies, Vancouver, BC) was added to the remaining blood (500 μL/10 mL blood). This was incubated for 20 min and then 1 mL FBS was added along with 10 mL PBS. Histopaque (20-25 mL) placed in a 50 mL Falcon the prepared blood/PBS solution was overlaid very slowly. This was centrifuged with no brake (25° C., 1500 rpm, 25 min). The top layer was removed and the T-cells in the buffy coat layer were then removed to a new 50 mL tube. The T-cells were washed with PBS, resuspended in 1 mL ACK lysis buffer and topped up to 25 mL, incubated for 5 min, brought up to 50 mL with PBS, and then pelleted. This red blood cell lysis step was repeated a second time.
# PBMCs were isolated similarly to the T-cells, except that 90 mL of blood were used and after the removal of platelets the RosetteSep™ Human T-Cell Enrichment Cocktail was not added, instead an equal volume of PBS (90 mL) was added before overlaying on Histopaque. Centrifugation over Histopaque as above results in PBMC-containing buffy coat.
# DCs (20000-30000/well) and 10 times as many T-cells were plated in each well in a total of 200 μL/well in DC medium. Co-cultures were incubated 24 h after which cells evaluated for DC maturation markers as described below.
# Transwell assays were performed in 24-well plates. Co-cultures were plated out as described above with the final volume per well of 500 μL. For the transwell samples DCs were plated in the well and T-cells placed into the insert. The cells were then incubated 24 h and examined in the same manner as co-cultures without transwells.
# DCs were grown as described until day 8 when there were split into two flasks, one with normal media and the other in serum free media. While no serum was present, X-VIVO™ 15 media contains growth factors which help maintain the health of the cultures. The co-culture experiment was performed as above in 48-well plates.
# Co-cultures were examined using FACS analysis. After incubation, cells were washed in BD stain buffer (BSA) with Human Fc block (EMD Millipore) and incubated on ice for 30 min. Cells were then stained with fluorescently labeled anti-MHCII, anti-CD86, anti-CD83, and anti-CD40 primary antibodies (BD, 1:100 or 1:50 in BD stain buffer (BSA)) or with appropriate isotype controls (ice, dark, 40 min). Cells were then washed twice in BD stain buffer (BSA) and analyzed on an LSRII flow cytometer.
# [2] = tested on: regulatory T-cells (CD3+, CD4+, CD25+, FOXp3+); assay: Regulatory T-cells in blood of rats dosed by oral gavage for 42 days (flow cytometry); assay type: in vivo, Sprague-Dawley rats; details: for Treg % Gated, percent change relative to pretest means: rat
# Procedure: Sprague-Dawley rats (CD®[Crl:CD®(SD)] were administered 2-deoxy-2-fluoro-L-fucose by oral gavage daily for 42 consecutive days at doses of 0, 125, 500 or 2000 mg/kg/day. Blood samples (0.4 mL/timepoint) were collected in sodium heparin at pretest and days 2, 7, 22, 43, 49, 56, and 71 of the study. Samples were processed within 24 hours of collection. Aliquots of the specimens were stained with predetermined volumes of previously tested and titered monoclonal antibodies specific for each marker. The red cells in each tube were lysed and after staining the cells were fixed with Versalyse Lysis Buffer solution (Beckman Coulter). The prepared specimens were analyzed on a Beckman-Coulter FC 500 MPL flow cytometer.
# [3] = tested on: ZAP70; assay: TCR signaling, pZAP70 western blot in CD3/CD28 activated T-cells; assay type: cell-based, human; details: CD3/CD28 bead activation 0-4 h, pZAP70 normalized to ZAP70
# Procedure: Purified T-cells were plated in 6-well plates (2.5×10^6 cells/well, 2.5 mL T-cell medium) and were activated with CD3/CD28 beads (20 μL beads/well, Miltenyi Biotec, San Diego, Calif.) at 37 ° C. for 0-4 h. At the indicated time, samples were then harvested, washed in PBS, lysed with RIPA buffer (Thermo Scientific, containing DNAse and protease/phosphatase inhibitors), and snap frozen on dry ice followed by storage at −80 ° C. Cell lysates (˜3 μg/sample determined by BCA assay) were run on SDS-PAGE and examined by western blot on nitrocellulose membranes with anti-pZAP70 antibody (Cell Signaling Technologies). Briefly, blots were blocked for 1 h at room temperature in 5% milk in TBST (TBST from Cell Signling Technologies), rinsed with TBST and then incubated with primary antibody (anti-pZAP70 1:1000 in 5% BSA in TBST) at 4 ° C. overnight. Blots were washed 3× with TBST and probed with HRP-conjugated secondary antibodies for 1 hr at RT (1:2000 in 5% non-fat milk in TBST) followed by washing (3×TBST) and detection using Cell Signaling Elite ECL as per manufacturer instructions. Blots were scanned using an Amersham™ 600 imager (GE Healthcare). Once imaged, blots could be stripped and reprobed for additional markers using other primary antibodies. […]
smiles,measurement,setting,value
C[C@@H]1OC(O)[C@@H](F)[C@H](O)[C@@H]1O (stereo partly drawn) [2-deoxy-2-fluoro-L-fucose],"DC activation and maturation markers, DCs alone","[1]; DCs alone, with or without treatment",do not show changes in these markers
same,"DC activation and maturation markers MHCII, CD86, CD83 and CD40 (MFI vs control co-culture)","[1]; DCs co-cultured 24 h with autologous T-cells expanded with 100-200 μM, serum-containing medium","increases in the DC activation and maturation markers MHCII, CD86, CD83 and CD40"
same,"DC activation and maturation markers, transwell co-culture",[1]; T-cells and DCs separated by transwell inserts,do not occur when transwell inserts are used
same,"DC activation and maturation markers, serum-free co-culture",[1]; serum-free medium (no antigen),does not provide the same increases
same,"Treg % Gated, percent change relative to pretest means","[2]; F, 125 mg/kg/day oral gavage, Day 2",−54%
same,"Treg % Gated, percent change relative to pretest means","[2]; F, 125 mg/kg/day oral gavage, Day 7",−67%
same,"Treg % Gated, percent change relative to pretest means","[2]; F, 125 mg/kg/day oral gavage, Day 22",−61%
same,"Treg % Gated, percent change relative to pretest means","[2]; F, 125 mg/kg/day oral gavage, Day 43",−64%
same,"Treg % Gated, percent change relative to pretest means","[2]; F, 125 mg/kg/day oral gavage, Day 49, recovery period",−40%
same,"Treg % Gated, percent change relative to pretest means","[2]; F, 125 mg/kg/day oral gavage, Day 56, recovery period",−51%
same,"Treg % Gated, percent change relative to pretest means","[2]; F, 125 mg/kg/day oral gavage, Day 71, recovery period",−45%
same,"Treg % Gated, percent change relative to pretest means","[2]; F, 500 mg/kg/day oral gavage, Day 2",−56%
same,"Treg % Gated, percent change relative to pretest means","[2]; F, 500 mg/kg/day oral gavage, Day 7",−60%
same,"Treg % Gated, percent change relative to pretest means","[2]; F, 500 mg/kg/day oral gavage, Day 22",−60%
same,"Treg % Gated, percent change relative to pretest means","[2]; F, 500 mg/kg/day oral gavage, Day 43",−50%
same,"Treg % Gated, percent change relative to pretest means","[2]; F, 500 mg/kg/day oral gavage, Day 49, recovery period",−43%
same,"Treg % Gated, percent change relative to pretest means","[2]; F, 500 mg/kg/day oral gavage, Day 56, recovery period",−38%
same,"Treg % Gated, percent change relative to pretest means","[2]; F, 500 mg/kg/day oral gavage, Day 71, recovery period",−40%
same,"Treg % Gated, percent change relative to pretest means","[2]; F, 2000 mg/kg/day oral gavage, Day 2",−41%
same,"Treg % Gated, percent change relative to pretest means","[2]; F, 2000 mg/kg/day oral gavage, Day 7",−39%
same,"Treg % Gated, percent change relative to pretest means","[2]; F, 2000 mg/kg/day oral gavage, Day 22",−43%
same,"Treg % Gated, percent change relative to pretest means","[2]; F, 2000 mg/kg/day oral gavage, Day 43",−28%
same,"Treg % Gated, percent change relative to pretest means","[2]; F, 2000 mg/kg/day oral gavage, Day 49, recovery period",−19%
same,"Treg % Gated, percent change relative to pretest means","[2]; F, 2000 mg/kg/day oral gavage, Day 56, recovery period",−16%
same,"Treg % Gated, percent change relative to pretest means","[2]; F, 2000 mg/kg/day oral gavage, Day 71, recovery period",−26%
same,"Treg % Gated, percent change relative to pretest means","[2]; M, 125 mg/kg/day oral gavage, Day 2",−44%
same,"Treg % Gated, percent change relative to pretest means","[2]; M, 125 mg/kg/day oral gavage, Day 7",−64%
same,"Treg % Gated, percent change relative to pretest means","[2]; M, 125 mg/kg/day oral gavage, Day 22",−65%
same,"Treg % Gated, percent change relative to pretest means","[2]; M, 125 mg/kg/day oral gavage, Day 43",−59%
same,"Treg % Gated, percent change relative to pretest means","[2]; M, 125 mg/kg/day oral gavage, Day 49, recovery period",−46%
same,"Treg % Gated, percent change relative to pretest means","[2]; M, 125 mg/kg/day oral gavage, Day 56, recovery period",−47%
same,"Treg % Gated, percent change relative to pretest means","[2]; M, 125 mg/kg/day oral gavage, Day 71, recovery period",−42%
same,"Treg % Gated, percent change relative to pretest means","[2]; M, 500 mg/kg/day oral gavage, Day 2",−61%
same,"Treg % Gated, percent change relative to pretest means","[2]; M, 500 mg/kg/day oral gavage, Day 7",−63%
same,"Treg % Gated, percent change relative to pretest means","[2]; M, 500 mg/kg/day oral gavage, Day 22",−64%
same,"Treg % Gated, percent change relative to pretest means","[2]; M, 500 mg/kg/day oral gavage, Day 43",−58%
same,"Treg % Gated, percent change relative to pretest means","[2]; M, 500 mg/kg/day oral gavage, Day 49, recovery period",−48%
same,"Treg % Gated, percent change relative to pretest means","[2]; M, 500 mg/kg/day oral gavage, Day 56, recovery period",−47%
same,"Treg % Gated, percent change relative to pretest means","[2]; M, 500 mg/kg/day oral gavage, Day 71, recovery period",−48%
same,"Treg % Gated, percent change relative to pretest means","[2]; M, 2000 mg/kg/day oral gavage, Day 2",−42%
same,"Treg % Gated, percent change relative to pretest means","[2]; M, 2000 mg/kg/day oral gavage, Day 7",−43%
same,"Treg % Gated, percent change relative to pretest means","[2]; M, 2000 mg/kg/day oral gavage, Day 22",−51%
same,"Treg % Gated, percent change relative to pretest means","[2]; M, 2000 mg/kg/day oral gavage, Day 43",−29%
same,"Treg % Gated, percent change relative to pretest means","[2]; M, 2000 mg/kg/day oral gavage, Day 49, recovery period",−6%
same,"Treg % Gated, percent change relative to pretest means","[2]; M, 2000 mg/kg/day oral gavage, Day 56, recovery period",−12%
same,"Treg % Gated, percent change relative to pretest means","[2]; M, 2000 mg/kg/day oral gavage, Day 71, recovery period",−13%
same,"relative proportion of regulatory T-cells (CD3+, CD4+, CD25+, FOXp3+) relative to pretest values","[2]; rats, all dosed groups (125, 500, 2000 mg/kg/day), beginning at Day 2",tended to decrease
same,Zap70 phosphorylation in treated T-cells compared to naive cells,[3],significantly more phosphorylated and remains phosphorylated for a longer period of time
